Laboratory results from ChEMBL document CHEMBL1201862, “PubChem BioAssay data set” (2004).
The source made the active and inactive calls.

Columns and labels:
[1] = T. cruzi growth inhibition in host cells, dose response, cell-based, plate reader, dry powder, set 2 (AID 652275); format: functional
[2] = L-6 rat myoblast cytotoxicity, dose response, counter-screen for T. cruzi inhibitor project, cell-based, plate reader, dry powder (AID 651895); format: functional
[3] = P. falciparum blood-stage growth inhibition, dose response, NF54 strain, plate reader, dry powder (AID 651889); format: functional, cell-based
[4] = T. cruzi amastigote growth inhibition, dose response, Tulahuen strain, L-6 host cells, dry powder (AID 651890); format: functional, cell-based
[5] = T. cruzi intracellular amastigote growth inhibition, dose response, imaging, CA-I/72 strain, bovine embryo skeletal muscle, dry powder (AID 651885); format: functional, cell-based
[6] = T. b. rhodesiense proliferation inhibition, dose response, STIB900 strain, plate reader, dry powder (AID 651894); format: functional, cell-based
[7] = growth inhibition of intracellular T. cruzi, dose response, cell-based, plate reader, dry powder samples (AID 651845); format: functional
[8] = L. donovani amastigote growth inhibition, dose response, axenic amastigotes, plate reader, dry powder (AID 651892); format: functional, cell-based
[9] = molecular target: 5-hydroxytryptamine receptor 1A (Homo sapiens, UniProt P08908); format: functional
Sequence of 5-hydroxytryptamine receptor 1A (P08908 whole entry): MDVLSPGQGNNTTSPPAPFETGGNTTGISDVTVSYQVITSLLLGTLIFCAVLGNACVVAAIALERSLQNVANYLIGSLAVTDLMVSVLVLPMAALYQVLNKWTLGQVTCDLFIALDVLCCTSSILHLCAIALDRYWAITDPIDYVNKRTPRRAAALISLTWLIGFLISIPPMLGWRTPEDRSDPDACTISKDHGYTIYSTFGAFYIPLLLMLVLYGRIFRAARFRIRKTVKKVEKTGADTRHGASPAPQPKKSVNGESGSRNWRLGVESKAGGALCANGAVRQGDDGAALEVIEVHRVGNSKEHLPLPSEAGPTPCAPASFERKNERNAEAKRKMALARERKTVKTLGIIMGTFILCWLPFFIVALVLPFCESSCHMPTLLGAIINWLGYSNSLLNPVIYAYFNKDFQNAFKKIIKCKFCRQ

Estrogen receptor beta [10] = molecular target: T1, Estrogen receptor beta (Homo sapiens, UniProt Q92731); test: ERβ–SRC-3 coactivator interaction inhibitors, confirmation, orthogonal assay, biochemical, ELISA, streptavidin-HRP readout (AID 1060)
T1 sequence (Q92731 whole entry): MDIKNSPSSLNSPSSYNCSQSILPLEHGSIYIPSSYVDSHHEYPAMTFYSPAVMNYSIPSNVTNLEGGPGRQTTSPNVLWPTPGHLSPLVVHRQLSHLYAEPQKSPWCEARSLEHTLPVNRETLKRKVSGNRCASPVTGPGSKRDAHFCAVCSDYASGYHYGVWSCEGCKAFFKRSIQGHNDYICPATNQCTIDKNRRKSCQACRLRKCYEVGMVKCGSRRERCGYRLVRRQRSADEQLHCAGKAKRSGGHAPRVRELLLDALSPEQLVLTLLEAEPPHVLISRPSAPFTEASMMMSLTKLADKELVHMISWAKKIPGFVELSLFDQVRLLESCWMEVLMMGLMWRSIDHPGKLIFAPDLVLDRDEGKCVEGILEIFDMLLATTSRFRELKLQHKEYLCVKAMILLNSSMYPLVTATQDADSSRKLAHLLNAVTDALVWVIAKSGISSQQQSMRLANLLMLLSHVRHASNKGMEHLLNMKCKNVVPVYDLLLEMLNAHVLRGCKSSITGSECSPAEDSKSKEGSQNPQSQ

Estrogen receptor = molecular target: T2, Estrogen receptor (Homo sapiens, UniProt P03372);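 note: potency for inhibiting coactivator peptide recruitment to the receptor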
T2 sequence (P03372 whole entry): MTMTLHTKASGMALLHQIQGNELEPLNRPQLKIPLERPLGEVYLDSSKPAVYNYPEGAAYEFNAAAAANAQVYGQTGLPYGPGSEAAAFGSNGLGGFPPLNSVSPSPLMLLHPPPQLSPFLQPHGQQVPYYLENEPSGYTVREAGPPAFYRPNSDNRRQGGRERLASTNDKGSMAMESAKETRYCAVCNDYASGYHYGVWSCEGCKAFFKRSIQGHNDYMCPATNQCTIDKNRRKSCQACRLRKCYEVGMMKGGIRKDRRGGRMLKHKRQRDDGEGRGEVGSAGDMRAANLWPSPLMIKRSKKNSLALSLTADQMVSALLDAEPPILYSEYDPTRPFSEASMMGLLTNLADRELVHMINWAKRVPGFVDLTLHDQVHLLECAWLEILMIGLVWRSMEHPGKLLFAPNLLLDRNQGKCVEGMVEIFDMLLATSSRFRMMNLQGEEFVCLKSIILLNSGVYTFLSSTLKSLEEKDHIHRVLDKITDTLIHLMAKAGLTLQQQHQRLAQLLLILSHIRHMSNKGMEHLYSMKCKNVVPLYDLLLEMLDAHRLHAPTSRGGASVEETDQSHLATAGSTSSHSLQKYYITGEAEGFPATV

Protein Tat = molecular target: T3, Protein Tat (Human immunodeficiency virus type 1 group M subtype B (isolate HXB2)(HIV-1), UniProt P04608); format: functional;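 note: tat binding to TAR RNA read out by fluorescence polarization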
T3 sequence (P04608 whole entry): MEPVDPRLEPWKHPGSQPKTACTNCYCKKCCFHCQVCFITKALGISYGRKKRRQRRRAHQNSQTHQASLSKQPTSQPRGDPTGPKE

Estrogen receptor beta [11] = molecular target: T1, Estrogen receptor beta
[12] = Concentration-dependent survival of SW480 colon cancer line, luminescence detection with CellTiter-Glo, half-maximal inhibitory concentration (AID 1117338); format: functional
[13] = RKO cell viability reduction, dose response, CellTiter-Glo luminescence (AID 1117322); format: functional
[14] = CellTiter-Glo luminescent dose response of DLD-1 viability loss (AID 1117352); format: functional
[15] = HCT116 cell viability decrease, GSK3B pretreatment – CellTiter-Glo, IC50, dose response (AID 1117339); format: functional; settings: HCT-116
[16] = cytotoxicity toward Colo320 cells – cell-based, CellTiter-Glo luminescence, IC50, dose response (AID 1117334); format: functional; settings: COLO 320
[17] = cytotoxicity toward HT-29 cells – cell-based, CellTiter-Glo luminescence, IC50, dose response (AID 1117330); format: functional
[18] = SNU-C1 cell viability reduction, dose response, CellTiter-Glo luminescence (AID 1117323); format: functional, cell-based
[19] = cytotoxicity toward HCT116 cells – cell-based, CellTiter-Glo luminescence, IC50, dose response (AID 1117332); format: functional; settings: HCT-116
[20] = molecular target: Mitogen-activated protein kinase 10 (Homo sapiens, UniProt P53779); test: Dose response biochemical screening assay for inhibitors of c-Jun N-Terminal Kinase 3 (JNK3). [Related pubchem assays: 746 ]
Sequence of Mitogen-activated protein kinase 10 (P53779 whole entry): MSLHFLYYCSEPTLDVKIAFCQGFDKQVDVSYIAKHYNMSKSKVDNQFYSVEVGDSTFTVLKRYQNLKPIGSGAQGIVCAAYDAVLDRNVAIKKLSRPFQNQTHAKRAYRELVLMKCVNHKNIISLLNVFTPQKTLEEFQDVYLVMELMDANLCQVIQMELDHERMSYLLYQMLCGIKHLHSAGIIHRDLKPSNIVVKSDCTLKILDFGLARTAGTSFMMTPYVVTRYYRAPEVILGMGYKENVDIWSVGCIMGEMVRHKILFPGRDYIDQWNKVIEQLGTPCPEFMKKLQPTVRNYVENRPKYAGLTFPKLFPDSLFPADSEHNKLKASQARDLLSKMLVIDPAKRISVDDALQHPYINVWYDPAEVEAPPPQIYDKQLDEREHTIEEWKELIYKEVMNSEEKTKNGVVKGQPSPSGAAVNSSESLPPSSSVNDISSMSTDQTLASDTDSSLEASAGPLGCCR

Cytochrome P450 3A4 = Cytochrome P450 3A4 (Homo sapiens, UniProt P08684);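 note: CYP3A4 tested as one member of a cytochrome P450 panel screen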
Sequence of Cytochrome P450 3A4 (P08684 whole entry): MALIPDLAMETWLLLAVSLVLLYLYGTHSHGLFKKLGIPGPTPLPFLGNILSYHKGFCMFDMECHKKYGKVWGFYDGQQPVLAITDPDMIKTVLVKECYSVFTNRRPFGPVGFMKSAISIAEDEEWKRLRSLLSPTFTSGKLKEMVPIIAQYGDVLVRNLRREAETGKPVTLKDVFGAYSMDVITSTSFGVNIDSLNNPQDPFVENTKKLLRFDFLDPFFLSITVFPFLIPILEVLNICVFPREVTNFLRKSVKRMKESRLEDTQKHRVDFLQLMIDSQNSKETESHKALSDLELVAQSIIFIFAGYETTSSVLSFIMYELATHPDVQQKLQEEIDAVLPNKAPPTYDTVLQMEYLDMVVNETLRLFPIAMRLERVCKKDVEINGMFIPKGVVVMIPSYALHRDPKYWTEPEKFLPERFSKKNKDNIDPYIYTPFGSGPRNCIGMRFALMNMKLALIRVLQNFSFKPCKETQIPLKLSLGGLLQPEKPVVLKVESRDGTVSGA

[21] = cytotoxicity toward NIH3T3 fibroblasts, dose response, counter-screen, cell-based, ATP luminescence, mouse fibroblasts (AID 2010); format: functional;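 note: cells exposed to compound for about 90 hours before reading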
[22] = inhibitors of intracellular T. cruzi replication, confirmation, NIH3T3 host cells, beta-gal luminescence (AID 2044); format: functional, cell-based;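 note: intracellular parasites grown in NIH/3T3 mouse fibroblasts as host cells; luminescent beta-galactosidase reporter signal from transgenic T. cruzi replicating inside host cells; inhibitors lower the luminescence signal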
[23] = M. tuberculosis growth inhibition, HTS (AID 449762); format: functional
[24] = microbe, parasite or virus in culture; format: functional; settings: Mycobacterium tuberculosis
[25] = P. falciparum Dd2 growth inhibitors, dose response, SYBR Green, dry powder samples (AID 1159566); format: functional, cell-based;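 note: potency for growth inhibition with lower SYBR green DNA signal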
[26] = P. falciparum ATP4 D1247Y mutant growth inhibitors, dose response, NITD609-resistant line, SYBR Green, dry powder (AID 1159571); format: functional, cell-based;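 note: parasites synchronized at ring stage by sorbitol before testing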
[27] = HepG2 cell cytotoxicity, dose response, cytotoxicity control, plate reader, dry powder samples (AID 1159569); format: functional, cell-based;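 note: inhibitor potency with signal falling toward the positive control level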
[28] = P. falciparum 3D7-ScDHODH growth inhibitors, dose response, SYBR Green, dry powder samples (AID 1159570); format: functional, cell-based;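 note: parasite growth measured after 72 hours of compound exposure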
[29] = P. falciparum Dd2 growth inhibitors, dose response, SYBR Green, cherry-picked samples (AID 1159567); format: functional, cell-based
[30] = Luminescence Cell-Based Dose Response HTS to Identify Activators of Luciferase Translation or Activity in H4 […] Cells. [Related pubchem assays: 1829 (Project Summary), 1814 (Primary HTS)]; format: functional
[31] = molecular target: Heat shock protein HSP 90-alpha (Homo sapiens, UniProt P07900); format: functional, organism-based
[32] = molecular target: Induced myeloid leukemia cell differentiation protein Mcl-1 (Homo sapiens, UniProt Q07820); format: functional
Sequence of Induced myeloid leukemia cell differentiation protein Mcl-1 (Q07820 whole entry): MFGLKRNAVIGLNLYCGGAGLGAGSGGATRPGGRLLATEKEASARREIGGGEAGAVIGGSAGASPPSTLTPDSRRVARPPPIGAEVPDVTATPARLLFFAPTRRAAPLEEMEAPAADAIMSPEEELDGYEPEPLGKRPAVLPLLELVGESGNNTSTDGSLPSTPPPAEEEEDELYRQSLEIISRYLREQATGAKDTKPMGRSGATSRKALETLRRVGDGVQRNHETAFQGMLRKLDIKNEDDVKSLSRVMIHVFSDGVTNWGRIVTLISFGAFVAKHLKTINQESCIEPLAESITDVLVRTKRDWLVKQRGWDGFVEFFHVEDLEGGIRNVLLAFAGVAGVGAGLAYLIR

[33] = Luminescence Cell-Based Dose Confirmation HTS to Identify Activators of 5'UTR Stem-Loop Driven Alpha-Synuclein mRNA Translation in H4 Neuroglioblastoma Cells. [Related pubchem assays: 1829 (Project Summary), 1814 (Primary HTS)]; format: functional
Ephrin type-A receptor 4 = Ephrin type-A receptor 4 (Mus musculus, UniProt Q03137); test: inhibitors of EphA4 binding to KYL peptide, primary screen, biochemical, colorimetric, mouse EphA4 (AID 689); format: functional
Sequence of Ephrin type-A receptor 4 (Q03137 whole entry): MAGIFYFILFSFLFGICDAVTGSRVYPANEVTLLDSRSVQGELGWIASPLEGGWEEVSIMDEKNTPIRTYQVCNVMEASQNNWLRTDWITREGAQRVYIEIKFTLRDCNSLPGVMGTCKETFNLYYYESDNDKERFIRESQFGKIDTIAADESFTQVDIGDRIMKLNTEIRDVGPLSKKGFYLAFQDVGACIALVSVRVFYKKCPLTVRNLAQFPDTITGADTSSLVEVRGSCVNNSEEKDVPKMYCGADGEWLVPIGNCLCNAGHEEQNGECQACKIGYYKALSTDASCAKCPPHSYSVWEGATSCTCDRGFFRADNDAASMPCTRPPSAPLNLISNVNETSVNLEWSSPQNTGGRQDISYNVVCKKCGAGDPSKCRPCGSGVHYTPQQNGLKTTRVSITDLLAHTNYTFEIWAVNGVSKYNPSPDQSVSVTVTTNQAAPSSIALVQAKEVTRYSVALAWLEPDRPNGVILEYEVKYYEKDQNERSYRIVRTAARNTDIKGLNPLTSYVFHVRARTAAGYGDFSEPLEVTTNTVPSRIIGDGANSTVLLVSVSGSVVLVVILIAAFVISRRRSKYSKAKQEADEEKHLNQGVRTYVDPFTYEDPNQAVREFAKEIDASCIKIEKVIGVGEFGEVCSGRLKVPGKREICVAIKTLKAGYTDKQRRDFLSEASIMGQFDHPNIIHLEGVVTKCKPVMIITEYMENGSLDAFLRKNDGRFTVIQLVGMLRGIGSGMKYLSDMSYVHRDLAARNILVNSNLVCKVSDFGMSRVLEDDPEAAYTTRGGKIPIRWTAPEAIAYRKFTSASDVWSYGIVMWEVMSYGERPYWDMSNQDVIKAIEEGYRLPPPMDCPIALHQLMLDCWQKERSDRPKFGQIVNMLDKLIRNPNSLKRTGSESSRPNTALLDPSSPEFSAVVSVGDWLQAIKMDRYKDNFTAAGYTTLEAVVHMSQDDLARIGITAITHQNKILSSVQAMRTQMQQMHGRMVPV

H4 = test: Luminescence Cell-Based Dose Response HTS to Identify Activators of 5'UTR Stem-Loop Driven Prion Protein mRNA Translation in H4 Neuroglioblastoma Cells. [Related pubchem assays: 1829 (Project Summary), 1814 (Primary HTS)]; format: functional; settings: Homo sapiens

Which AC50 [1] does the source give for `C[C@H](CO)N1C[C@H](C)[C@@H](CN(C)Cc2ccc(Oc3ccccc3)cc2)Oc2c(NC(=O)c3ccncc3)cccc2C1=O` here?
Its AC50 is 0.000469 µM (active).

And the IC50 [2]?
The IC50 was 17.9 µM (inactive).

And the IC50 [3]?
Its IC50 is 0.872 µM (inactive).

What about the IC50 [4] of the same compound?
Its IC50 is 0.0215 µM (active).

What about the IC50 [5] of the same compound?
The IC50 was > 20 µM (inactive).

And the IC50 [6]?
The IC50 was 3.73 µM (inactive).

And the AC50 [7]?
The AC50 was 0.00152 µM (active).

What about the IC50 [8] of the same compound?
The IC50 was 26.3 µM (inactive).

Which EC50 [9] does the source give for `Cc1[nH]c2c(C(F)(F)F)cccc2c1CCN` here?
Its EC50 is > 50 µM (not active).

What does the source list for `Cc1noc(C)c1COc1ccc(C(=O)OCC(=O)N2c3ccccc3NC(=O)C2(C)C)cc1`?
IC50 (Estrogen receptor beta [10]): 3.98 µM (not active); IC50 (Estrogen receptor): 8.74 µM (active); IC50 (Protein Tat): > 100 µM (inconclusive); IC50 (Estrogen receptor beta [11]): 2.72 µM (active)

Which results are given for `Cc1cc2nc3c(=O)[nH]c(=O)nc-3n(C[C@H](O)[C@H](O)[C@H](O)COP(=O)(O)OP(=O)(O)OC[C@H]3O[C@@H](n4cnc5c(N)ncnc54)[C@H](O)[C@H]3O)c2cc1C`?
IC50 [12]: > 20 µM (inactive); IC50 [13]: > 20 µM (inactive); IC50 [14]: > 20 µM (inactive); IC50 [15]: > 20 µM (inactive); IC50 [16]: > 20 µM (inactive); IC50 [17]: > 20 µM (inactive); IC50 [18]: > 20 µM (inactive); IC50 [19]: > 20 µM (inactive)

Which IC50 [20] does the source give for `COc1ccc2c(c1)c1ncn(Cc3ccco3)c(=O)c1n2C` here?
Its IC50 is 90 µM (not active).

With `Cc1ccccc1C1C(C#N)=C2N=C(N)c3c(sc4c3CCCCC4)N2C2=C1C(=O)CC(C)(C)C2` (stereo not drawn) as the compound, how does the AC50 (Cytochrome P450 3A4) read?
The AC50 was 1.12 µM (inconclusive).

And the EC50 [21]?
Its EC50 is > 60 µM (inconclusive).

What about the EC50 [22] of the same compound?
Its EC50 is 1.52 µM (active).

And the IC50 [23]?
The IC50 was > 100 µM (active).

And the CC50 [24]?
The CC50 was 33.1 µM (active).

For `CCC(=O)N1CCC2(CC1)CN(Cc1cc(F)ccc1F)[C@H](CO)c1[nH]c3cc(OC)ccc3c12`, which AC50 [25] is on record?
Its AC50 is 1.96 µM (active).

And the AC50 [26]?
The AC50 was 1.43 µM (active).

And the AC50 [27]?
Its AC50 is > 100 µM (inactive).

And the AC50 [28]?
Its AC50 is 1.83 µM (active).

What about the AC50 [29] of the same compound?
The AC50 was 2.98 µM (active).

For `CCOC(=O)c1c(C)oc2c1c(C(c1cccnc1)N1CCOCC1)c(O)c1ccccc12` (stereo not drawn), which EC50 [30] is on record?
Its EC50 is 106 µM (active).

And the AC50 [31]?
Its AC50 is 8.43 µM (active).

And the IC50 [32]?
Its IC50 is 1.17 µM (active).

What about the EC50 [33] of the same compound?
Its EC50 is 12.5 µM (active).

What about the IC50 (Ephrin type-A receptor 4) of the same compound?
The IC50 was 3.58 µM (active).

What about the EC50 (H4) of the same compound?
Its EC50 is > 120 µM (not active).
